Results published in PMC11413853, “Discovery of VU6007496: Challenges in the Development of an M1 Positive Allosteric Modulator Backup Candidate” (ACS Chemical Neuroscience, 2024).
Where two headings read alike, the source gives them in different places.

Columns and labels:
Opiate μ (OP3, MOP) = assay: Eurofins radioligand binding; parameters: species or system Human; conditions: specific binding
Hepatocyte MET ID, dog = format: in vitro ADME; conditions: 4-h incubation
Excerpt: More concerning were the results generated via outsourced multispecies hepatocyte MET ID, which were drastically different than the liver S9MET ID. The extent of metabolism for VU6007496 with rat, dog, monkey and human hepatocytes was 64.7, 51.5, 63.9 and 99.5%, respectively (Figure 8). […] In human hepatocytes, PAM 11 was metabolized primarily to Metabolite A (24), the result of oxidative N-demethylation of the southern pyrazole. The other minor metabolites were oxidation on the tetrahydropyran moiety and included ring opening (Metabolite F, 25).[21]

[1] = Predicted hepatic clearance, dog; format: in vitro ADME
Experimental: The diluted fraction unbound (fu2) in brain was calculated in the same manner by using brain homogenate rather than plasma. Undiluted fraction unbound for the brain was calculated using […]
Equation 5 Determination of fraction unbound in brain. Fu2 represents the diluted fraction […]
Intrinsic clearance: Human or rat hepatic microsomes (0.5 mg/mL) and 1 µM test compound were incubated in 100 mM potassium phosphate pH 7.4 buffer with 3 mM MgCl2 at 37 °C with constant shaking. After a 5 min preincubation, the reaction was initiated by the addition of NADPH (1 mM). At selected time intervals (0, 3, 7, 15, 25, and 45 min), aliquots were taken and subsequently placed into a 96-well plate containing cold acetonitrile with internal standard (50 ng/mL carbamazepine). Plates were then centrifuged at 3000 rcf (4 °C) for 10 min, and the supernatant was transferred to a separate 96-well plate and diluted 1:1 with water for LC/MS/MS analysis. The in vitro half-life ( 1/2, min, Eq. 1), intrinsic clearance (CLint, mL/min/kg, Eq. 2), and subsequent predicted hepatic clearance (CLhep, mL/min/kg, Eq. 3) was determined employing the […]
Samples were analyzed on a Thermo Electron TSQ Quantum Ultra triple quad mass spectrometer (San Jose, CA) via electrospray ionization (ESI) with two Themo Electron Accella pumps (San Jose, CA), and a Leap Technologies CTC PAL autosampler (Carrboro, NC). […]

Sodium Channel, Site 2 = assay: Eurofins radioligand binding; parameters: species or system Rat; conditions: specific binding
Dopamine D3 = assay: Eurofins radioligand binding; parameters: species or system Human; conditions: specific binding
Dopamine D1 = assay: Eurofins radioligand binding; parameters: species or system Human; conditions: specific binding
Glucocorticoid = assay: Eurofins radioligand binding; parameters: species or system Human; conditions: specific binding
Histamine H1 = assay: Eurofins radioligand binding; parameters: species or system Human; conditions: specific binding
GABAB1A = assay: Eurofins radioligand binding; parameters: species or system Human; conditions: specific binding
Glutamate, NMDA, Glycine = Glutamate, NMDA, Glycine (Rattus norvegicus, UniProt P35439); assay: Eurofins radioligand binding; conditions: specific binding
Glutamate, NMDA, Glycine, sequence (P35439 394-800 limits assumed): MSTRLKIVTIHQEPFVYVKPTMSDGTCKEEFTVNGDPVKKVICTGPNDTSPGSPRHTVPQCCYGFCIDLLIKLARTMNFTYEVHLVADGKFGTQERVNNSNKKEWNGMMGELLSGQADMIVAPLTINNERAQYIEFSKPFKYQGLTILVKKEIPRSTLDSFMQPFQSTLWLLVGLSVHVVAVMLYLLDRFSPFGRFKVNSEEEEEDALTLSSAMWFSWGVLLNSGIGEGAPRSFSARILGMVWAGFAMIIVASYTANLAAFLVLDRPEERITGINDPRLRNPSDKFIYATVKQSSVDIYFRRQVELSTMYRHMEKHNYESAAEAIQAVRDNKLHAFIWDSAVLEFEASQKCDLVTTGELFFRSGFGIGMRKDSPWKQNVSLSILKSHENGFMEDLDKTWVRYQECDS

Cannabinoid CB1 = assay: Eurofins radioligand binding; parameters: species or system Human; conditions: specific binding
Serotonin (5-HT1A) = assay: Eurofins radioligand binding; parameters: species or system Human; conditions: specific binding
MET ID in human liver S9 = format: in vitro ADME; conditions: based on MS peak areas
Excerpt: Eight oxidative metabolites were identified, with the major metabolite in both rat and human being Metabolite A (VU6036463, 24), the result of oxidative N-demethylation of the southern pyrazole (Scheme 4). The majority of other oxidative metabolism occurred on the tetrahydropyran moiety and included ring opening, but there was no amide hydrolysis observed.[21]

Prostanoid EP4 = assay: Eurofins radioligand binding; parameters: species or system Human; conditions: specific binding
Rolipram = assay: Eurofins radioligand binding; parameters: species or system Rat; conditions: specific binding
Estrogen ERα = assay: Eurofins radioligand binding; parameters: species or system Human; conditions: specific binding
Transporter, GABA = assay: Eurofins radioligand binding; parameters: species or system Rat; conditions: specific binding
[2] = IV/PO pharmacokinetics, dog; format: in vivo, dog (beagle or mongrel); conditions: for clearance / Vd / half-life: plasma, 1 mg/kg; for clearance: read-out: CLp; for Vd: read-out: Vss; for half-life: read-out: elimination t1/2 (converted)
Excerpt: We next conducted multispecies IV/PO PK in parallel as a potential discerning data set.

[3] = tested on: Calcium Channel L-Type, Dihydropyridine; assay: Eurofins radioligand binding; parameters: species or system Rat; conditions: specific binding
Potassium Channel hERG = assay: Eurofins radioligand binding; conditions: human, specific binding

Cn1ccc(-c2ccc(Cc3cc(C(=O)NC4CCOCC4)nc4ccn(C)c34)cc2)n1 [compound 11]
% Inhibition at 10 µM (Opiate μ (OP3, MOP)): -4%
extent of metabolism, dog hepatocytes (Hepatocyte MET ID, dog): 51.5%
Predicted CLhep, dog [1]: 14 mL/min/kg
% Inhibition at 10 µM (Sodium Channel, Site 2): 19%
% Inhibition at 10 µM (Dopamine D3): 8%
% Inhibition at 10 µM (Dopamine D1): 5%
% Inhibition at 10 µM (Glucocorticoid): 5%
% Inhibition at 10 µM (Histamine H1): 5%
% Inhibition at 10 µM (GABAB1A): 4%
inhibition at 10 µM (Glutamate, NMDA, Glycine): 0%
% Inhibition at 10 µM (Cannabinoid CB1): 5%
% Inhibition at 10 µM (Serotonin (5-HT1A)): 7%
extent of metabolism, human liver S9 (MET ID in human liver S9): 58.1%
% Inhibition at 10 µM (Prostanoid EP4): 16%
% Inhibition at 10 µM (Rolipram): 10%
% Inhibition at 10 µM (Estrogen ERα): 5%
% Inhibition at 10 µM (Transporter, GABA): -17%
F (%) po ([2]; dose iv/po 1/5 mg/kg): 35%
clearance ([2]; dose iv/po 1/5 mg/kg): 2.4 mL/min/kg
Vd ([2]; dose iv/po 1/5 mg/kg): 2.2 L/kg
half-life ([2]; dose iv/po 1/5 mg/kg): 12.8 h
% Inhibition at 10 µM [3]: -8%
inhibition at 10 µM (Potassium Channel hERG): 11%

Cn1ccc(-c2ccc(Cc3cc(C(=O)NC4CCOCC4)nc4ccsc34)cc2)n1 [compound 12]
Predicted CLhep, dog [1]: 16 mL/min/kg
F (%) po ([2]; dose iv/po 1/3 mg/kg): 9%
clearance ([2]; dose iv/po 1/3 mg/kg): 1.3 mL/min/kg
Vd ([2]; dose iv/po 1/3 mg/kg): 4 L/kg
half-life ([2]; dose iv/po 1/3 mg/kg): 36.6 h
